Experimental data from patent US10195179B2, “Spiro-lactam NMDA receptor modulators and uses thereof” (Aptinyx Inc., priority 2016, dated 2019).

Tests used:
SD rats = assay: Novelty-induced hypophagia (NIH) test; type: in vivo, rat; conditions: 1-100 μg/kg PO, 1 h before test
Excerpt: This Example relates to the assessment of the anxiolytic effect of treatment in the stress-induced anxiety model, novelty induced hypophagia. This assay is also sensitive to the rapid acting antidepressants ketamine and GLYX-13 (Li et al., “mTOR-dependent synapse formation underlies the rapid antidepressant effects of NMDA antagonists,” Science 329:959-964, 2010; and Burgdorf et al., 2013). See also Bodnoff et al., “A comparison of the effects of diazepam versus several typical and atypical anti-depressant drugs in an animal model of anxiety,” Psychopharmacology, 97:277-279, 1989.
Testing was conducted as described by (Burgdorf et al., 2013). […] Animals were food deprived overnight before testing, and lab chow was placed in the center chamber of an open field (40×40×20 cm) for 10 min under dim red lighting. Between testing each animal, feces and urine were removed from the apparatus. After NIH testing, the latency to eat in the animal's home cage was determined as a control to ensure the effect on eating is specific to the novel environment. Animals were videotaped, and latency (sec) for the animal to take the first bite of food was manually scored offline.
A single point per dose group that was 2 or more standard deviations from the mean was considered an outlier and was excluded from the data analysis. […]

[1] = Microsomal stability, rat; type: in vitro ADME; conditions: rat microsomes
Protocol: Microsomal stability for Compound AA and Compound BB was investigated. The following table indicates the percent of Compound AA and Compound BB remaining after 60 minutes.

Microsomal Stability (% remaining at 60 min) Rat [1]: 96%
SMILES: C[C@@H](O)[C@@H](C(N)=O)N1C[C@@]2(CCCN2S(C)(=O)=O)C1=O [Compound BB, (2S,3R)-3-hydroxy-2-((S)-5-(methylsulfonyl)-1-oxo-2,5-diazaspiro[3,4]octan-2-yl)butanamide]
latency to eat in the novelty-induced hypophagia (NIH) test (SD rats): produces an anxiolytic effect
